In the assay the test system is SAM present in erythroblasts. Nature of the assay: Abundance of SAM in bone marrow erythroblasts of treated mice (mass spectrometry). The format is in vivo, mouse. The following applies: CLEU 50 mg/body i.p., bone marrow subset II, Day 2, vs PBS. The method, then:
Wild-type mice with a genetic background of C57BL/6J were purchased from Charles River Laboratories, Inc. Mice at 8 to 14 weeks of age were used for analysis. For CLEU treatment (50 mg/body), a solution of cycloleucine (CLEU) was prepared by diluting cycloleucine (CLEU) (Sigma) in PBS (50 mg/ml), and 1 ml of the CLEU solution was administered intraperitoneally. For AKBA treatment (2 mg/body), 2 mg AKBA (Enzo Life Sciences)/20% DMSO/1 mL PBS solution was administered intraperitoneally. Vehicle without AKBA was used as a control. For measuring complete blood count of peripheral blood, peripheral blood was collected from facial veins and counted by use of an automated animal blood cell counter (microsemi LC-662). All of the experiments conducted in this study were approved by the Animal Experiment Committee of the Environmental Safety Committee of Tohoku University. BM cells and spleen cells were harvested in a conventional manner. Cells were stained with combinations of antibodies specific to erythroblasts and mature cells, to thereby identify them. The cells were visualized with antibody and streptavidin-peridinin chlorophyll protein-cyanin 5.5. […] Flow cytometric analysis and cell sorting were performed according to the manufacturer's protocol using FACS AriaII (BD), and then the obtained data were analyzed using FlowJo software (TreeStar). […]

The source of these data is patent US11554124B2, “Hematopoiesis-enhancing agent” (priority 2018, dated 2023).

Structures are written as SMILES.

In the case of `NC1(C(=O)O)CCCC1` [CLEU, cycloleucine], the “abundance of SAM present in erythroblasts” value is “reduce the abundance of SAM”.
